Type: physicochemical
Method: The specific experimental method was as follows. […] The chloroform solution was mixed with 0.5 ml of chloroform, from which 0.5 ml of diluent was taken and two-fold serial dilution was performed by using chloroform. Then 0.5 ml of a chloroform solution of paclitaxel (10 mg/ml) was added to the above-mentioned sample after the two-fold serial dilution, and then left in a hood to be naturally volatilized overnight. Crystal formation in the dried sample was observed and recorded.

- solubility of paclitaxel (crystal formation): +
Substance: castor oil

Source: US20220111056A1, “DRUG-LOADED EMULSION” (ZHEJIANG ZHIDA PHARMACEUTICAL CO., LTD., priority 2019, published 2022)
